Structures are written as SMILES.

The conditions of data set [1]: proton resonance frequency 20 MHz, available temperature closest to 37° C.; cited from earlier work.
The conditions of data set [2]: logarithmic dissociation constant for the Gd-ligand complexes (GdL); cited from earlier work.
A short description of data set [3]: Measurement of relaxation time / relaxivity, Bruker minispec relaxometer. As to conditions: relaxivity per Gd ion, 20 MHz, 37° C., ultrapure water. It is filed as physicochemical. How it is done:
The relaxation times relating to the particles obtained were measured on a Bruker minispec NMS 120 relaxometer (Bruker, Rheinstetten, Germany) operating at a proton resonance frequency of ω/2π=20 MHz and a temperature of 37° C. In order to avoid any confusion between angular frequency ω and the frequency v, here, all of the frequencies given in Hz correspond to ω/2π=v. The spectrometer was calibrated using standard water/oil mixtures with known component ratios, in accordance with the manufacturer's instructions. The pre-diluted samples were further diluted directly in 10 mm NMR (nuclear magnetic resonance) tubes using a series containing 10×1 mL samples. All of the dilutions were made using ultrapure water. The tubes were sealed and placed in a water bath at 37° C. for at least 10 minutes before measurement, The relaxation times T1 were determined by using the inversion-recovery pulse sequence with a repetition time TR=5 s. […] In general, 100 echoes with an echo time TE between 0.5 and 2 ms depending on the concentration of the sample were recorded. […]
The relaxivities per particle were determined by firstly calculating the volume of a particle. To this end, the nanoparticles were assumed to be homogeneous in dimension and spherical with a diameter equal to the number average diameter determined by DLS (dynamic light scattering). […]

Turning to `CNC[C@H](O)[C@@H](O)[C@H](O)[C@H](O)CO.CNC[C@H](O)[C@@H](O)[C@H](O)[C@H](O)CO.O=C([O-])CN(CCN(CC(=O)[O-])CC(=O)O)CCN(CC(=O)O)C(COCc1ccccc1)C(=O)[O-].[Gd+3]` (stereo not drawn) [MultiHance], the r1 in data set [1] is 4.39 mM⁻¹ s⁻¹. For the same compound, in data set [2], the pKGdL is listed as 22.6.
Regarding `O=C([O-])CN(CCN(CC(=O)[O-])CC(COP(=O)([O-])OC1CCC(c2ccccc2)(c2ccccc2)CC1)N(CC(=O)[O-])CC(=O)[O-])CC(=O)[O-].[Gd+3].[Na+].[Na+].[Na+]` (stereo not drawn) [Ablavar], in data set [2], the pKGdL is 6.6.
On to `O=C([O-])CN1CCN(CC(=O)[O-])CCN([C@H](CO)[C@H](O)CO)CCN(CC(=O)[O-])CC1.[Gd+3]` (racemic) [Gadovist], for which the r1 in data set [1] is 4.8 mM⁻¹ s⁻¹. In addition, the pKGdL in data set [2] is given as 21.1.
For `COCCNC(=O)CN(CCN(CCN(CC(=O)[O-])CC(=O)NCCOC)CC(=O)[O-])CC(=O)[O-].[Gd+3]` [OptiMark], the r1 in data set [1] is 4.7 mM⁻¹ s⁻¹. For the same compound, the pKGdL in data set [2] was 16.8.
Regarding `[Cl][Gd]([Cl])[Cl]` [GdCl3], in data set [3], the “r1^ion” value came out at 10.4 mM⁻¹ s⁻¹.
For `CNC(=O)CN(CCN(CCN(CC(=O)[O-])CC(=O)NC)CC(=O)[O-])CC(=O)[O-].[Gd+3]` [Omniscan], the r1 in data set [1] was 3.96 mM⁻¹ s⁻¹. The pKGdL in data set [2] is listed as 16.9.
In the case of `CNC[C@H](O)[C@@H](O)[C@H](O)[C@H](O)CO.CNC[C@H](O)[C@@H](O)[C@H](O)[C@H](O)CO.O=C([O-])CN(CCN(CC(=O)[O-])CC(=O)O)CCN(CC(=O)[O-])CC(=O)O.[Gd+3]` [Magnevist], in data set [1], the r1 was 3.8 mM⁻¹ s⁻¹. The pKGdL in data set [2] was 22.5.
`CC(O)CN1CCN(CC(=O)[O-])CCN(CC(=O)[O-])CCN(CC(=O)[O-])CC1.[Gd+3]` (stereo not drawn) [Prohance]: in data set [1], the r1 is 3.7 mM⁻¹ s⁻¹. In addition, the pKGdL in data set [2] is on record as 23.8.
As to `CCOc1ccc(CC(CN(CCN(CC(=O)[O-])CC(=O)[O-])CC(=O)[O-])N(CC(=O)[O-])CC(=O)[O-])cc1.[Gd+3].[Na+].[Na+]` (stereo not drawn) [Eovist], the r1 in data set [1] is 5.4 mM⁻¹ s⁻¹.
